Measured values from patent US20230346924A1, “MRNA VACCINE COMPRISING ADJUVANT CAPABLE OF KINETIC CONTROL” (PROGENEER INC., priority 2020, published 2023).
“Also recorded” adds a separate entry of the source.

Legend:
[1] = system: bone marrow-derived dendritic cells (BMDCs); assay: Degree of antigen presentation in BMDCs treated with mRNA and toll-like receptor agonist (anti-OVA SIINFEKL antibodies); type: cell-based, mouse; conditions: compared to mRNA only
Description: To confirm the efficacy of the composition for an mRNA vaccine of the present invention, an experiment was performed using OVA mRNA which is widely used as an mRNA vaccine. In further detail, first, CleanCap® OVA mRNA (5 moU, L-7210, TriLink Biotechnologies) and Opti-MEM™ (Reduced Serum Medium, ThermoFisher Scientific) were mixed at a volume ratio of 1:49, and Lipofectamine (Lipofectamine™ 2000 Transfection Reagent, ThermoFisher Scientific) and Opti-MEM® were mixed at a volume ratio of 2:23 as a delivery system, and then the above mixtures were mixed again in a volume ratio of 1:1 and reacted for 5 minutes, thereby preparing an mRNA composition. As toll-like receptor agonists, a toll-like receptor 3 agonist, which is polyinosinic-polycytidylic acid (poly I:C, Sigma-Aldrich), a toll-like receptor 4 agonist, which is Lipopolysaccharide (LPS, Sigma-Aldrich), and a toll-like receptor 7 or 8 agonist which is resiquimod (Biorbyt), were used. Poly I:C was used after being dispersed in phosphate buffered saline (PBS) at a concentration of 0.8 mg/mL, LPS was used after being dispersed in PBS at a concentration of 0.3 μg/mL, R848 was first dissolved in dimethyl sulfoxide (DMSO) at a concentration of 20 mg/mL, and then the dissolved solution was dispersed in PBS to a concentration of 20 μg/mL and used. In the case of treatment with a single toll-like receptor agonist, poly I:C was treated at 40 μg/mL. LPS was treated at 30 ng/mL, or R848 was treated at […], and in the case of treatment with a combination of agonists, 2 μg/mL of poly I:C and 1 μg/mL of R848 were treated, or 2 ng/mL of LPS and 1 μg/mL of R848 were treated, and in both cases, mRNA was treated at 1 μg/mL.
To identify the efficacy of the composition for an mRNA vaccine of the present invention, as cells for experiments, bone marrow-derived dendritic cells (BMDCs), plasmacytoid dendritic cells (pDCs), and T cells isolated from the spleen of an ovalbumin-specific TCR-bearing mouse (OT-1 transgenic mouse: OT-1 mouse) were used. BMDCs and pDCs were obtained from the bone marrow of a laboratory mouse, C57BL/6 (female, Orient Bio). In further detail, a 6-weeks-old mouse was euthanized, the femur and tibia were cut, and then a medium was flushed to extract internal materials. In addition, the extracted materials were treated with a red blood cell lysis buffer (BioLegend) to remove red blood cells, and used. For pDCs, 6-weeks-old C57BL/6 was euthanized, the femur and tibia were cut, and then a medium was flushed to extract internal materials. The extracted materials were then treated with a red blood cell lysis buffer (BioLegend) to remove red blood cells, and only pDCs were isolated using a pDC isolation kit (Plasmacytoid Dendritic Cell Isolation Kit, mouse, MACS Miltenyi Biotec) to be used in the experiments. Spleen cells were used by extracting the spleen from an OT-1 laboratory mouse, physically grinding the spleen to prepare single cells, washing the cells with PBS, and removing red blood cells with a red blood cell lysis buffer. The obtained cells were then seeded in a culture plate (Corning petri dish) with a size of 100 mm×25 mm to 2×10^6 cells, and cultured under conditions of 5% CO2 and 37° C. As a culture medium, a complete RPMI 1640 medium(Gibco) to which 20 ng/mL of a granulocyte-macrophage colony-stimulating factor (GM-CSF, Recombinant Mouse GM-CSF Protein, R&D Systems) was added, was used. […]

[2] = system: T cells isolated from the spleen of an OT-1 mouse; assay: OT-1 T cell activation in co-culture of treated BMDCs and T cells; type: cell-based; conditions: BMDC/T cell co-culture
[3] = system: bone marrow-derived dendritic cells (BMDCs); assay: Cytokine secretion by BMDCs (ELISA: IL-12p70, IL-10, type 1 IFN); type: cell-based, mouse
Description: To confirm the efficacy of the composition for an mRNA vaccine of the present invention, an experiment was performed using OVA mRNA which is widely used as an mRNA vaccine. In further detail, first, CleanCap® OVA mRNA (5 moU, L-7210, TriLink Biotechnologies) and Opti-MEM™ (Reduced Serum Medium, ThermoFisher Scientific) were mixed at a volume ratio of 1:49, and Lipofectamine (Lipofectamine™ 2000 Transfection Reagent, ThermoFisher Scientific) and Opti-MEM® were mixed at a volume ratio of 2:23 as a delivery system, and then the above mixtures were mixed again in a volume ratio of 1:1 and reacted for 5 minutes, thereby preparing an mRNA composition. As toll-like receptor agonists, a toll-like receptor 3 agonist, which is polyinosinic-polycytidylic acid (poly I:C, Sigma-Aldrich), a toll-like receptor 4 agonist, which is Lipopolysaccharide (LPS, Sigma-Aldrich), and a toll-like receptor 7 or 8 agonist which is resiquimod (Biorbyt), were used. […]
To confirm the effect of a composition for an mRNA vaccine including a single toll-like receptor in BMDCs, first, BMDCs were treated with a toll-like receptor agonist and modified-mRNA (5-methoxyuridine modified OVA mRNA, TriLink) in the same manner as in Example 12.1, and an antigen presentation degree, amounts of cell surface molecules and levels of cytokines such as interleukin-12p70 (IL-12p70) and interferon were measured. […]

[4] = agonist and mRNA at the same time (0h)
[5] = agonist four hours after mRNA (4h)
[6] = agonist and mRNA at the same time (0h), compared to mRNA alone

Substance: Lipopolysaccharide [LPS]
- degree of antigen presentation [1, 4]: reduced
- degree of antigen presentation ([1]; agonist eight hours after mRNA (8h)): increased
- degree of antigen presentation [1, 5]: increased

Substance: polyinosinic-polycytidylic acid [poly I:C]
- amount of IFN-γ+ T cells ([2]; agonist 4h after mRNA): markedly increased
- level of IL-2 ([2]; agonist 4h after mRNA): highest; also recorded: markedly increased
- level of secreted IFN-γ ([2]; agonist 4h after mRNA): markedly increased
- amount of IFN-γ+ T cells ([2]; agonist 8h after mRNA): markedly increased
- level of IL-2 ([2]; agonist 8h after mRNA): markedly increased
- level of secreted IFN-γ ([2]; agonist 8h after mRNA): markedly increased
- amount of IFN-γ+ T cells [2, 6]: remarkably reduced
- level of IL-2 [2, 6]: remarkably reduced
- level of secreted IFN-γ [2, 6]: remarkably reduced
- secretion of type 1 IFN [3, 4]: markedly increased
- secretion of type 1 IFN [3, 5]: reduced
- degree of antigen presentation [1, 4]: remarkably reduced
- degree of antigen presentation [1, 5]: significantly increased
